Patent US11767341B2, “Lincosamide antibiotics and uses thereof” (President and Fellows of Harvard College, priority 2017, dated 2023)
≈ marks a conversion by molar mass, not a printed value.

These molecules were tested on S. pneumoniae MMX 3028 cErmB (assay: MIC determination). Conditions: Streptococcus pneumoniae, MMX3028CERMB; S. pneumoniae MMX 3028 cErmB; read-out: MIC.
Format: cell-based
`CSC1O[C@H]([C@H](NC(=O)[C@@H]2[C@@H]3OCC=CC[C@H]3CN2C)[C@H](C)Sc2ccc(-c3cncnc3)cc2)C(O)[C@@H](O)[C@H]1O` (some centres unmarked) [FSA-212034] showed an MIC of 4 µg/mL (≈ 6.64 µM).

Each molecule was assayed on P. aeruginosa MMX Mex parent strain (assay: MIC determination). Conditions: Pseudomonas aeruginosa.
Format: cell-based
With `CSC1O[C@H]([C@H](NC(=O)[C@@H]2[C@@H]3OCC=CC[C@H]3CN2C)[C@H](C)Sc2ccc(-c3cncnc3)cc2)C(O)[C@@H](O)[C@H]1O` (some centres unmarked) [FSA-212034] the MIC was > 64 µg/mL.

The molecules below were run on S. pneumoniae ATCC 49619 (assay: MIC determination). Conditions: Streptococcus pneumoniae, ATCC49619; S. pneumoniae ATCC 49619; read-out: MIC.
Format: cell-based
For `CSC1O[C@H]([C@H](NC(=O)[C@@H]2[C@@H]3OCC=CC[C@H]3CN2C)[C@H](C)Sc2ccc(-c3cncnc3)cc2)C(O)[C@@H](O)[C@H]1O` (some centres unmarked) [FSA-212034], the MIC was ≤ 0.06 µg/mL.

Each molecule was assayed on P. aeruginosa ATCC 27853 (assay: MIC determination). Conditions: Pseudomonas aeruginosa, ATCC27853.
Format: cell-based
For `CSC1O[C@H]([C@H](NC(=O)[C@@H]2[C@@H]3OCC=CC[C@H]3CN2C)[C@H](C)Sc2ccc(-c3cncnc3)cc2)C(O)[C@@H](O)[C@H]1O` (some centres unmarked) [FSA-212034], the MIC was > 64 µg/mL.

Each molecule was assayed on S. pyogenes MMX 946 Macrolide-Resistant (assay: MIC determination). Conditions: Streptococcus pyogenes; S. pyogenes MMX 946 Macrolide-Resistant (MacRes); read-out: MIC.
Format: cell-based
In the case of `CSC1O[C@H]([C@H](NC(=O)[C@@H]2[C@@H]3OCC=CC[C@H]3CN2C)[C@H](C)Sc2ccc(-c3cncnc3)cc2)C(O)[C@@H](O)[C@H]1O` (some centres unmarked) [FSA-212034], the MIC is reported as 2 µg/mL (≈ 3.32 µM).

These molecules were tested on E. coli MMX 0121 ΔTolC (assay: MIC determination). Conditions: Escherichia coli.
Format: cell-based
`CSC1O[C@H]([C@H](NC(=O)[C@@H]2[C@@H]3OCC=CC[C@H]3CN2C)[C@H](C)Sc2ccc(-c3cncnc3)cc2)C(O)[C@@H](O)[C@H]1O` (some centres unmarked) [FSA-212034] gave an MIC of 1 µg/mL (≈ 1.66 µM).

These molecules were tested on E. coli MMX TolC parent strain (assay: MIC determination). Conditions: Escherichia coli.
Format: cell-based
For `CSC1O[C@H]([C@H](NC(=O)[C@@H]2[C@@H]3OCC=CC[C@H]3CN2C)[C@H](C)Sc2ccc(-c3cncnc3)cc2)C(O)[C@@H](O)[C@H]1O` (some centres unmarked) [FSA-212034], the MIC was > 64 µg/mL.

What follows are molecules tested on S. aureus BAA 977 iErmA (assay: MIC determination). Conditions: Staphylococcus aureus, BAA977.
Format: cell-based
For `CSC1O[C@H]([C@H](NC(=O)[C@@H]2[C@@H]3OCC=CC[C@H]3CN2C)[C@H](C)Sc2ccc(-c3cncnc3)cc2)C(O)[C@@H](O)[C@H]1O` (some centres unmarked) [FSA-212034], the MIC was 0.25 µg/mL (≈ 0.415 µM).

These molecules were tested on K. pneumoniae ATCC 10031 (assay: MIC determination). Conditions: Klebsiella pneumoniae, ATCC10031; K. pneumoniae ATCC 10031; read-out: MIC.
Format: cell-based
`CSC1O[C@H]([C@H](NC(=O)[C@@H]2[C@@H]3OCC=CC[C@H]3CN2C)[C@H](C)Sc2ccc(-c3cncnc3)cc2)C(O)[C@@H](O)[C@H]1O` (some centres unmarked) [FSA-212034] was tested, and the MIC was 64 µg/mL (≈ 106 µM).

What follows are molecules tested on S. aureus ATCC 29213 (assay: MIC determination). Conditions: Staphylococcus aureus, ATCC29213, S. aureus ATCC 29213; read-out: MIC.
Format: cell-based
`CSC1O[C@H]([C@H](NC(=O)[C@@H]2[C@@H]3OCC=CC[C@H]3CN2C)[C@H](C)Sc2ccc(-c3cncnc3)cc2)C(O)[C@@H](O)[C@H]1O` (some centres unmarked) [FSA-212034] gave an MIC of 0.25 µg/mL (≈ 0.415 µM).

These molecules were tested on S. aureus MMX 3035 cErmA (assay: MIC determination). Conditions: Staphylococcus aureus, MMX3035CERMA; S. aureus MMX 3035 cErmA; read-out: MIC.
Format: cell-based
`CSC1O[C@H]([C@H](NC(=O)[C@@H]2[C@@H]3OCC=CC[C@H]3CN2C)[C@H](C)Sc2ccc(-c3cncnc3)cc2)C(O)[C@@H](O)[C@H]1O` (some centres unmarked) [FSA-212034] showed an MIC of 32 µg/mL (≈ 53.1 µM).

Each molecule was assayed on H. influenzae ATCC 49247 (assay: MIC determination). Conditions: Haemophilus influenzae, ATCC49247; H. influenzae ATCC 49247; read-out: MIC.
Format: cell-based
For `CSC1O[C@H]([C@H](NC(=O)[C@@H]2[C@@H]3OCC=CC[C@H]3CN2C)[C@H](C)Sc2ccc(-c3cncnc3)cc2)C(O)[C@@H](O)[C@H]1O` (some centres unmarked) [FSA-212034], the MIC was 4 µg/mL (≈ 6.64 µM).

Each molecule was assayed on S. pyogenes ATCC 19615 (assay: MIC determination). Conditions: Streptococcus pyogenes, ATCC19615; S. pyogenes ATCC 19615; read-out: MIC.
Format: cell-based
For `CSC1O[C@H]([C@H](NC(=O)[C@@H]2[C@@H]3OCC=CC[C@H]3CN2C)[C@H](C)Sc2ccc(-c3cncnc3)cc2)C(O)[C@@H](O)[C@H]1O` (some centres unmarked) [FSA-212034], the MIC was ≤ 0.06 µg/mL.

The molecules below were run on E. faecalis ATCC 29212 (assay: MIC determination). Conditions: Enterococcus faecalis, ATCC29212.
Format: cell-based
`CSC1O[C@H]([C@H](NC(=O)[C@@H]2[C@@H]3OCC=CC[C@H]3CN2C)[C@H](C)Sc2ccc(-c3cncnc3)cc2)C(O)[C@@H](O)[C@H]1O` (some centres unmarked) [FSA-212034] gave an MIC of 16 µg/mL (≈ 26.5 µM).

What follows are molecules tested on E. faecalis MMX 847 Macrolide-Resistant (assay: MIC determination). Conditions: Enterococcus faecalis.
Format: cell-based
`CSC1O[C@H]([C@H](NC(=O)[C@@H]2[C@@H]3OCC=CC[C@H]3CN2C)[C@H](C)Sc2ccc(-c3cncnc3)cc2)C(O)[C@@H](O)[C@H]1O` (some centres unmarked) [FSA-212034] was tested, and the MIC was > 64 µg/mL.

Each molecule was assayed on E. coli MP-9 ΔTolC (assay: MIC determination). Conditions: Escherichia coli.
Format: cell-based
`CSC1O[C@H]([C@H](NC(=O)[C@@H]2[C@@H]3OCC=CC[C@H]3CN2C)[C@H](C)Sc2ccc(-c3cncnc3)cc2)C(O)[C@@H](O)[C@H]1O` (some centres unmarked) [FSA-212034] was tested, and the MIC was 16 µg/mL (≈ 26.5 µM).

These molecules were tested on E. coli ATCC 25922 (assay: MIC determination). Conditions: Escherichia coli, ATCC25922.
Format: cell-based
`CSC1O[C@H]([C@H](NC(=O)[C@@H]2[C@@H]3OCC=CC[C@H]3CN2C)[C@H](C)Sc2ccc(-c3cncnc3)cc2)C(O)[C@@H](O)[C@H]1O` (some centres unmarked) [FSA-212034] was tested, and the MIC was > 64 µg/mL.

What follows are molecules tested on S. aureus MP-549 msr(a) USA 300 (assay: MIC determination). Conditions: Staphylococcus aureus, USA300, S. aureus MP-549 msr(a) USA 300.
Format: cell-based
Work on `CSC1O[C@H]([C@H](NC(=O)[C@@H]2[C@@H]3OCC=CC[C@H]3CN2C)[C@H](C)Sc2ccc(-c3cncnc3)cc2)C(O)[C@@H](O)[C@H]1O` (some centres unmarked) [FSA-212034] yielded an MIC of 0.5 µg/mL (≈ 0.829 µM).

What follows are molecules tested on B. fragilis ATCC 25285 (assay: MIC determination). Conditions: Bacteroides fragilis, ATCC25285; B. fragilis ATCC 25285; read-out: MIC.
Format: cell-based
`CSC1O[C@H]([C@H](NC(=O)[C@@H]2[C@@H]3OCC=CC[C@H]3CN2C)[C@H](C)Sc2ccc(-c3cncnc3)cc2)C(O)[C@@H](O)[C@H]1O` (some centres unmarked) [FSA-212034] showed an MIC of 1 µg/mL (≈ 1.66 µM).

What follows are molecules tested on S. aureus Micromyx USA 300 (assay: MIC determination). Conditions: Staphylococcus aureus, USA300; S. aureus Micromyx USA 300; read-out: MIC.
Format: cell-based
`CSC1O[C@H]([C@H](NC(=O)[C@@H]2[C@@H]3OCC=CC[C@H]3CN2C)[C@H](C)Sc2ccc(-c3cncnc3)cc2)C(O)[C@@H](O)[C@H]1O` (some centres unmarked) [FSA-212034] showed an MIC of 0.25 µg/mL (≈ 0.415 µM).

Each molecule was assayed on S. pneumoniae MMX 3031 cMefA (assay: MIC determination). Conditions: Streptococcus pneumoniae, MMX3031CMEFA.
Format: cell-based
`CSC1O[C@H]([C@H](NC(=O)[C@@H]2[C@@H]3OCC=CC[C@H]3CN2C)[C@H](C)Sc2ccc(-c3cncnc3)cc2)C(O)[C@@H](O)[C@H]1O` (some centres unmarked) [FSA-212034] was tested, and the MIC was ≤ 0.06 µg/mL.

Each molecule was assayed on P. aeruginosa MMX 3476 Δmex (assay: MIC determination). Conditions: Pseudomonas aeruginosa.
Format: cell-based
In the case of `CSC1O[C@H]([C@H](NC(=O)[C@@H]2[C@@H]3OCC=CC[C@H]3CN2C)[C@H](C)Sc2ccc(-c3cncnc3)cc2)C(O)[C@@H](O)[C@H]1O` (some centres unmarked) [FSA-212034], the MIC is reported as > 64 µg/mL.

What follows are molecules tested on C. difficile BAA 1805 (assay: MIC determination). Conditions: Clostridioides difficile, BAA1805.
Format: cell-based
For `CSC1O[C@H]([C@H](NC(=O)[C@@H]2[C@@H]3OCC=CC[C@H]3CN2C)[C@H](C)Sc2ccc(-c3cncnc3)cc2)C(O)[C@@H](O)[C@H]1O` (some centres unmarked) [FSA-212034], the MIC was 0.5 µg/mL (≈ 0.829 µM).
